A word on the IC50: it is the concentration that gives 50% inhibition. Read a low IC50 as greater potency in that assay. As usually defined, the EC50 is the concentration needed to bring the measured effect to its halfway point.

SMILES strings stand for the structures. Several values for one entry are separate records, joined by “and”; a condition that tells them apart may be missing. Identical values can stand only once.

One experiment deals with T1, Lck (Mus musculus, UniProt P06240).
T1 construct: murine Lck (residues 227-509); made in house
T1 sequence (P06240 227-509): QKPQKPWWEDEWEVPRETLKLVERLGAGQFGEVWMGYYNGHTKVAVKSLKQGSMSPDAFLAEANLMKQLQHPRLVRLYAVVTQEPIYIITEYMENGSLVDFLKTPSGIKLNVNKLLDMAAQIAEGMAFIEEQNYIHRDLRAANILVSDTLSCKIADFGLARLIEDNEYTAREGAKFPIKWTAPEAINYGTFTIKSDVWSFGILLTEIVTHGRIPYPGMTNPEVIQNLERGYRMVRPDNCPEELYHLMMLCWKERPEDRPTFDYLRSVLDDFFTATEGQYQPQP
The experiment can be described thus: Continuous spectrophotometric kinase activity assay. The format is biochemical, murine. The source says:
(§1) Kinase domain constructs of human c-Abl (residues 229-512), chicken c-Src (residues 251-533 and residues 83-533), murine Lck (residues 227-509), and human Hck (residues 166-445) were expressed as previously described (Seeliger, Young et al. 2005; Seeliger, Nagar et al. 2007; the entire contents of each of which are incorporated by reference herein). Mutations were introduced into chicken c-Src (residues 251-533) (T338I, C277Q, L297M) by site-directed mutagenesis and verified by DNA sequencing.
(§2) In vitro kinase inhibition assays were performed using either a continuous spectrophotometric assay or a FRET-based endpoint assay.
(§3) The original characterization of kinase inhibition was performed with a commercial kinase assay that relies on a fluorescently labeled peptide kinase substrate (Z-LYTE, Invitrogen). For further characterization, a continuous spectrophotometric kinase activity assay was employed that is easily adapted to different substrate peptides as well as a wider range of peptide and ATP concentrations.

In experiment [1] the test system is 3T3 cells (src−/−) stably transfected with c-Src Y529F. The experiment can be described thus: Global phosphotyrosine Western blot (4G10) in c-Src Y529F-transfected cells. The experiment is classed as cell-based, murine. How it is done:
Cells were cultured in 48-well tissue culture plates in DMEM+10% FBS until they reached confluence. After removing serum-containing medium, cells were washed with serum-free DMEM, and small molecule inhibitor in serum-free DMEM with 2% DMSO was added to each well and incubated overnight. After incubation with compound, cells were washed once with PBS and lysed in Cell Extraction Buffer (Invitrogen), a modified RIPA buffer, supplemented with PMSF and protease inhibitors according to the manufacturer's instruction. Cell lysates were quantified by BCA assay (Pierce Biotechnology) and an equivalent amount of lysate was loaded into each lane of a 4-12% polyacrylamide gel, and separated by SDS-PAGE. Separated proteins were transferred onto a PVDF membrane, and blocked for one hour with 5% BSA in TBST buffer. The membrane was then incubated overnight at 4° C. with 4G10 anti-phosphotyrosine antibody (Millipore) and a β-tubulin antibody (Sigma) as a loading control. Fluorescent anti-mouse and anti-rabbit secondary antibodies (LI-COR) were added prior to imaging the membrane.
Having obtained macrocycle Src kinase inhibitors with nanomolar in vitro potency, the potency for inhibition of Src kinase activity in living cells was assessed. Since intracellular Src kinase signaling is complex and tightly regulated, a cell culture line transfected with a constitutively active form of murine c-Src was chosen. 3T3 cells (src−/−) stably transfected with c-Src Y529F were compared to 3T3 cells (src−/−) transfected with empty vector. Anti-phosphotryosine Western blotting with the 4G10 antibody (Millipore) indicated a marked difference between global phosphotyrosine levels in the c-Src Y529F transfected cells compared to those transfected with empty vector; in fact, almost all detectable intracellular phosphotyrosine in the Src-transfected cell line was a result of c-Src Y529F and downstream signaling (FIG. 23, upper panel, compare lanes 2 and 3, transfected and trated with DMSO, against lanes 8 and 9, transfected with empty vector).
Briefly, cells were seeded in a 48-well plate and grown to confluence in Dulbecco's Modified Eagle Medium (DMEM) supplemented with 10% fetal bovine serum (FBS). Individual wells were then treated with 10 or 100 μM concentration of macrocycle in serum-free DMEM overnight. After removing the small molecule and washing with phosphate-buffered saline, cells were lysed in radioimmunoprecipitation assay (RIPA) buffer, and global phosphotyrosine levels were quantified by Western blot.
In general terms: Immunoblotting shows a protein as a band on a membrane.

The target in another experiment is T2, Abl (Homo sapiens, UniProt P00519).
T2 construct: human c-Abl (residues 229-512); made in house
T2 sequence (P00519 229-512): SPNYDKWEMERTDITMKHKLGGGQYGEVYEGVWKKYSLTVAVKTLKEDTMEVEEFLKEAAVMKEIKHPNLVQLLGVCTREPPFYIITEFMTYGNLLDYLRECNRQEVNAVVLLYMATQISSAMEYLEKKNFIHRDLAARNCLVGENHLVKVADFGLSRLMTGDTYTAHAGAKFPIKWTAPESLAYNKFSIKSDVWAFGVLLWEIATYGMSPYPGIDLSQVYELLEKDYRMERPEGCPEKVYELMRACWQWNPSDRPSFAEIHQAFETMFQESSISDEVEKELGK
The experiment can be described thus: Continuous spectrophotometric kinase activity assay. The format is biochemical.
Source text: as §1, §2, §3

Experiment [2] addresses T3, Src kinase domain (chicken c-Src residues 251-533) (Gallus gallus, UniProt P00523).
T3 construct: chicken c-Src (residues 251-533 and residues 83-533); made in house
Described as above. The experiment is classed as biochemical. Conditions: for IC50: Src kinase domain.
Source text: as §1, §2, §3

In experiment [3] the target is T4, full-length chicken c-Src (Gallus gallus, UniProt P00523).
T4 construct: assayed against full-length chicken c-Src
Briefly: Z'-LYTE kinase assay (Tyr 02 substrate peptide), full-length c-Src. The format is biochemical. Conditions: for IC50: full-length chicken c-Src, ATP near KM (50 μM). How it is done: (§4) For the FRET-based endpoint assay, kinase assays were performed using Invitrogen's Z′-LYTE kinase assay using the Tyr 02 substrate peptide (based upon the optimal Abl substrate peptide […]) according to the manufacturer's instructions. Assays were performed at near KM ATP concentrations for full-length c-Src and full-length c-Src T338I-50 μM and 7 μM, respectively.
Derivatives of MC4 were synthesized by Fmoc solid-phase peptide synthesis and assayed against full-length chicken c-Src using Invitrogen's Z′-LYTE kinase assay. […] Holding the amino acids at the A and C positions constant, variants of MC4 containing phenylalanine, cyclohexylalanine, pentafluorophenylalanine, and N-methyl-phenylalanine at the B position in place of furylalanine were synthesized and assayed.

For the next experiment, the target named is HCK (Homo sapiens, UniProt P08631). The experiment can be described thus: Continuous spectrophotometric kinase activity assay. The experiment is classed as biochemical. Further details: Kinase domain constructs of human c-Abl (residues 229-512), chicken c-Src (residues 251-533 and residues 83-533), murine Lck (residues 227-509), and human Hck (residues 166-445); made in house.
Sequence of HCK (P08631 262-515 limits assumed): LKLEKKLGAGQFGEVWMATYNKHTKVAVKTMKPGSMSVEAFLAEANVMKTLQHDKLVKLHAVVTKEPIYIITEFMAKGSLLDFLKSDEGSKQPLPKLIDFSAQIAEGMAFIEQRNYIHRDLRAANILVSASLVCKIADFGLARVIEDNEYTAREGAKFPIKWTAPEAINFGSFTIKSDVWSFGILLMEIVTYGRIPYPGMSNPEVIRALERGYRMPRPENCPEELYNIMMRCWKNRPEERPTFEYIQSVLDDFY
Source text: as §1, §2, §3

The next experiment deals with Src Thr338Ile. The experiment can be described thus: Inhibition of Src gatekeeper mutant. The experiment is classed as biochemical, chicken.
Source text: as §1, §4

Another experiment addresses Pim1 (Homo sapiens, UniProt P11309). The experiment can be described thus: Z'-LYTE kinase assay (Invitrogen SelectScreen). Conditions: for IC50: Pim1. The format is biochemical. The source says:
(§5) Macrocycles A10-B1-C11-D5 and A10-B8-C11-D5 were enriched 2- to 6-fold upon selection for binding Akt3, MAPKAPK2, Pim1, and VEGFR2 (FIG. 6). These two macrocycles are structurally similar, sharing nitrophenylalanine (A10) and cyclohexylstatine (C11) building blocks as well as the same lysine scaffold (D5), and differ only at the B building block with either furylalanine (B1) or cyclohexylalanine (B8) (FIG. 6). For assay purposes, the macrocycles were synthesized with C-terminal PEG-diamine linkers to aid solubility, and then tested for the ability to inhibit Akt3, MAPKAPK2, Pim1 and VEGFR2.
(§6) Src IC50 determinations and single-point inhibition measurements were performed using Invitrogen's Z′-LYTE Tyr 02 assay kit according to the manufacturer's protocols. All kinase assays were performed at ATP concentrations near KM,ATP values, except where noted otherwise. Active human Src kinase was obtained from Millipore. For kinome profiling and IC50 determinations against non-Src kinases, compounds were submitted to Invitrogen's SelectScreen Kinase Profiling Service.

For another experiment, the target named is MAPKAPK2 (MK2) (Homo sapiens, UniProt P49137). Briefly: Z'-LYTE kinase assay (Invitrogen SelectScreen). The following applies: for IC50: MK2 (MAPKAPK2). The format is biochemical.
Sequence of MAPKAPK2 (MK2) (P49137 whole entry): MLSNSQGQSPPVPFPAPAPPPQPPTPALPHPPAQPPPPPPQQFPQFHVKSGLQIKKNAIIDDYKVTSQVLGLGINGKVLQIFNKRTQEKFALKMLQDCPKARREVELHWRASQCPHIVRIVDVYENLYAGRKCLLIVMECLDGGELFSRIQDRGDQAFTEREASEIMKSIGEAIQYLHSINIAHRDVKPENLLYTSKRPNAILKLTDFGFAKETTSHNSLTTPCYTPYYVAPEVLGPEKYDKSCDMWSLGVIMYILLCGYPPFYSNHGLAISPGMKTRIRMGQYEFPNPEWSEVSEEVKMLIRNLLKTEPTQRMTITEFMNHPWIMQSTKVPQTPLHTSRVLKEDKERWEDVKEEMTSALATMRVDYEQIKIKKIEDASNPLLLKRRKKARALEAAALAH
Source text: as §5, §6

In the next experiment the target is Akt3 (Homo sapiens, UniProt Q9Y243). Briefly: Z'-LYTE kinase assay (Invitrogen SelectScreen). The format is biochemical.
Sequence of Akt3 (Q9Y243 whole entry): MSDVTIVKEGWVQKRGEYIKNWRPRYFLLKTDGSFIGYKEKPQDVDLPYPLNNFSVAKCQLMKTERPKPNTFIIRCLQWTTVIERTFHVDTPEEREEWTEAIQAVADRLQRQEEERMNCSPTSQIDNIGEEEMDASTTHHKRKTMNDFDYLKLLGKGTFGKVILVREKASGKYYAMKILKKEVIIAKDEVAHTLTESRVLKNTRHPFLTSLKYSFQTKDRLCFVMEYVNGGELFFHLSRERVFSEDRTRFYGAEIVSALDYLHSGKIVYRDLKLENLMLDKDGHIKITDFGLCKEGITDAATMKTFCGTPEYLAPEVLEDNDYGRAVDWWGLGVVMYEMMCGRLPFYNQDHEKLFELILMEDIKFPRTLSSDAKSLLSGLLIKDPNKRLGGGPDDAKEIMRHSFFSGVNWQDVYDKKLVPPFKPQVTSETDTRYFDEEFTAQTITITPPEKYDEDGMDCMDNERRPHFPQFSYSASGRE
Source text: as §5, §6

The target of a further experiment is VEGFR2 (KDR) (Homo sapiens, UniProt P35968). Briefly: Z'-LYTE kinase assay (Invitrogen SelectScreen). The experiment is classed as biochemical.
Sequence of VEGFR2 (KDR) (P35968 20-1356): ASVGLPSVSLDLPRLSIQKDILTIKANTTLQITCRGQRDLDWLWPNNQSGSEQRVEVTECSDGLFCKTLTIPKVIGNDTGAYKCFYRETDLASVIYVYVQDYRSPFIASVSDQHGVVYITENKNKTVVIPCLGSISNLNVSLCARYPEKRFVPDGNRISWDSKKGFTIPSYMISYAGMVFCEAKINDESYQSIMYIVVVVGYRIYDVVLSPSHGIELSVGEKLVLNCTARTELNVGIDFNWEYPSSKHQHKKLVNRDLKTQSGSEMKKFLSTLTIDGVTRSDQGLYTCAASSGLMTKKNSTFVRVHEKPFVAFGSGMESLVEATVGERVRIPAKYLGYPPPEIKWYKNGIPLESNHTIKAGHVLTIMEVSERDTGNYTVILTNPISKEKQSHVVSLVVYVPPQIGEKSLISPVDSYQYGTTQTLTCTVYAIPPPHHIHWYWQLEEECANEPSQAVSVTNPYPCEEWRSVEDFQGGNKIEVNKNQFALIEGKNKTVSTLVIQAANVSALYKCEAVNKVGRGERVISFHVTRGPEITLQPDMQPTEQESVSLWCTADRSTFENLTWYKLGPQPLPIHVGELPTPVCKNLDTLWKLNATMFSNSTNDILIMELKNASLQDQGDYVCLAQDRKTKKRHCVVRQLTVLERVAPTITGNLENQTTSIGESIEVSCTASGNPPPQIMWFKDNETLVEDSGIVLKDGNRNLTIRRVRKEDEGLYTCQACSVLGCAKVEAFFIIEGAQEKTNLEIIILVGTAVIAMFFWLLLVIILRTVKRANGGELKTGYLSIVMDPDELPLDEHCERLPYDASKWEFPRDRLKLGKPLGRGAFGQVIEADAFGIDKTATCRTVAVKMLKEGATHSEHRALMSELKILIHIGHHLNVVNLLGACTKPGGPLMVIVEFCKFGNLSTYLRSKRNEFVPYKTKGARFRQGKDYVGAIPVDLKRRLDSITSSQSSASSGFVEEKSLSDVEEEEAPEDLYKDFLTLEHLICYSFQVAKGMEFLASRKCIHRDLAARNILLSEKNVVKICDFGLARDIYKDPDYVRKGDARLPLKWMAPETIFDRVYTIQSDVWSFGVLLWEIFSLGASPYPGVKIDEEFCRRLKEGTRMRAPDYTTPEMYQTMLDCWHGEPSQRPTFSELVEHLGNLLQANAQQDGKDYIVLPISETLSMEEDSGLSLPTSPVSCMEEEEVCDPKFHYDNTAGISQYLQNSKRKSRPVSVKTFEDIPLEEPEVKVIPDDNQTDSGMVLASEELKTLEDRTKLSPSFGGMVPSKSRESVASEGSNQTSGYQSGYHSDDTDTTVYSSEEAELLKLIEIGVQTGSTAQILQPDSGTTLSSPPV
Source text: as §5, §6

In experiment [4] the target is p38α-MAPKAPK2 kinase cascade (P38α-MK2) (Homo sapiens, UniProt P49137+Q16539). Briefly: Z'-LYTE kinase cascade assay (Invitrogen SelectScreen). The format is biochemical.
Sequence of p38α-MAPKAPK2 kinase cascade (P38α-MK2) (Q16539 whole entry): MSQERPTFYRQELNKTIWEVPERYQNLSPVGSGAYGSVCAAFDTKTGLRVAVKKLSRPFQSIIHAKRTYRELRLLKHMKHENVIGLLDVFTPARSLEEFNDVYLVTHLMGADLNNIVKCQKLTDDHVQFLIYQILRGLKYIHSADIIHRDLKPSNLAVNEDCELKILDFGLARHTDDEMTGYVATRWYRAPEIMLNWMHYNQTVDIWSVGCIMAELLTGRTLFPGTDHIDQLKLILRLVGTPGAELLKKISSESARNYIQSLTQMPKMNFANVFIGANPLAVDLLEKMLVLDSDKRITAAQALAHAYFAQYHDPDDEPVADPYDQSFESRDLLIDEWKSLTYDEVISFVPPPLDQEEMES
Sequence of p38α-MAPKAPK2 kinase cascade (P38α-MK2) (P49137 whole entry): as the sequence (P49137 whole entry) above
Source text: as §5, §6

The mark [5] stands for this setting: 5 μM ATP, 100 μM Src optimal peptide.
Setting [6] is: 5 μM ATP, 100 μM Src optimal peptide, listed as Macrocycle 1.2.
Where [7] appears, read: 5 μM ATP, 300 μM Src optimal peptide.
[8] abbreviates: 250 μM ATP, 300 μM Src optimal peptide.
Setting [9] is: 10 or 100 μM macrocycle overnight.

Sequence of Pim1 (P11309 whole entry): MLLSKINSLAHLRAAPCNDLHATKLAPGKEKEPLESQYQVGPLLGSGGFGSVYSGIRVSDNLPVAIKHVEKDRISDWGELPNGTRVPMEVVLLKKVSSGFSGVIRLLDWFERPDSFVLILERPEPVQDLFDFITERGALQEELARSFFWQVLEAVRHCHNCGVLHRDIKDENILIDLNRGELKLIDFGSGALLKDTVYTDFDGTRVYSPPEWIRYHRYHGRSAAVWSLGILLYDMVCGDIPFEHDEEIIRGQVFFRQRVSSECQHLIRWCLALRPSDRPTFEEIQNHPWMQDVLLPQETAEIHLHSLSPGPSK

As for `O=C1/C=C\C(=O)N[C@@H](CC2CCCCC2)C(=O)N[C@@H](Cc2ccccc2)C(=O)N[C@@H](CCCNC(=O)c2cnccn2)C(=O)NCC[C@@H](C(=O)O)N1` [MC1.2], the IC50 against Lck (setting [5]) was 4 µM; against Lck (setting [6]), at most 0.87 µM; on Lck (setting [7]) it was 1.9 µM; against Lck (setting [8]), 2.4 µM; against Abl (setting [5]) it was over 100 µM; at Abl (setting [7]) it was over 100 µM. The IC50 is over 100 µM against Abl (setting [8]); 0.07 µM in experiment [2] (setting [5]); at most 0.07 µM in experiment [2] (setting [6]); 0.12 µM in experiment [2] (setting [7]); 0.14 µM in experiment [2] (setting [8]); at most 0.004 µM in [3]. Also, the IC50 was 0.36 µM against HCK (setting [5]), at most 0.36 µM at HCK (setting [6]), 0.46 µM against HCK (setting [7]) and 1 µM at HCK (setting [8]). Also, in experiment [1] (100 μM), the “reduction of global tyrosine phosphorylation (in words)” value is “did not reduce global tyrosine phosphorylation”. The “increase in IC50 upon increasing substrate peptide 3-fold to 300 μM” value in experiment [2] (Src optimal substrate peptide 100 to 300 μM) stood at 50%. Besides, in [3], the “increase in Src inhibition potency relative to parent macrocycle” value is reported as over 150 fold.
Regarding `NC(=O)[C@@H]1CCCNC(=O)[C@H](Cc2ccc([N+](=O)[O-])cc2)NC(=O)[C@H](Cc2ccccc2)NC(=O)[C@H](CC2CCCCC2)NC(=O)/C=C/C(=O)N1` [MC4.2], the “inhibition of Src Thr338Ile gatekeeper mutant (in words)” value in the experiment on Src Thr338Ile is “retained their inhibition potency”. Moreover, the “reduction of global phosphotyrosine levels (in words)” value in experiment [1] (setting [9]) was “modest reduction”. Also, in experiment [1] (overnight treatment, serum-free DMEM, read-out: EC50 of reduction of global phosphotyrosine levels), the EC50 is over 100 µM. Further, the values for the IC50 in [2] (setting [5]) and in experiment [3] were 0.6 µM and 0.006 µM, respectively. In addition, the “increase in Src inhibition potency relative to parent macrocycle” value in experiment [3] is on record as over 10 fold.
For `NC(=O)[C@@H]1CCCNC(=O)[C@H](Cc2ccc([N+](=O)[O-])cc2)NC(=O)[C@H](Cc2ccc(F)cc2)NC(=O)[C@H](CC2CCCCC2)NC(=O)/C=C/C(=O)N1` [MC4.3], the “inhibition of Src Thr338Ile gatekeeper mutant (in words)” value with Src Thr338Ile is listed as “retained their inhibition potency”. For the same compound, the “reduction of global phosphotyrosine levels (in words)” value in [1] (setting [9]) is given as “higher levels of tyrosine phosphorylation inhibition”. In addition, the “Src inhibition relative to parent compound (in words)” value in [3] is given as “retained all of the parent compound activity”.
As to `CC(C)(C)n1nc(-c2ccc(Cl)cc2)c2c(N)ncnc21` [PP2, reference compound], in experiment [1] (10 μM), the “reduction of global phosphotyrosine levels (in words)” value is on record as “reduction of global phosphotyrosine to levels comparable with those observed in the cells transfected with empty vector”.
Take `NCCOCCOCCNC(=O)[C@@H]1CCCCNC(=O)[C@H](Cc2ccc([N+](=O)[O-])cc2)NC(=O)[C@H](Cc2ccco2)NC(=O)C[C@H](O)[C@H](CC2CCCCC2)NC(=O)/C=C\C(=O)N1` [cis-A10-B1-C11-D5]: the “inhibition of Pim1 (in words)” value against Pim1 (isolated kinase enzyme, non-DNA-linked form) is given as “did not inhibit”. Also, the “inhibition of MAPKAPK2 (in words)” value at MAPKAPK2 (MK2) (isolated kinase enzyme) is “did not inhibit”. The “inhibition of Akt3 (in words)” value at Akt3 (isolated kinase enzyme) is “did not inhibit”. Moreover, the “increase of VEGFR2 enzyme activity” value at VEGFR2 (KDR) (10 μM macrocycle) was 70%; on VEGFR2 (KDR) (100 μM compound), 300%. The IC50 in experiment [4] was 6.4 µM and 6.5 µM.
For `NCCOCCOCCNC(=O)[C@@H]1CCCCNC(=O)[C@H](Cc2ccc([N+](=O)[O-])cc2)NC(=O)[C@H](CC2CCCCC2)NC(=O)C[C@H](O)[C@H](CC2CCCCC2)NC(=O)/C=C\C(=O)N1` [cis-A10-B8-C11-D5], the IC50 was 7.5 µM and 7.3 µM on Pim1; 6.1 µM at MAPKAPK2 (MK2); 8.7 µM and 8.4 µM against Akt3 (Akt3); 3.4 µM in experiment [4].
For `NCCOCCOCCNC(=O)[C@@H]1CNC(=O)[C@@H](Cc2ccc(C(=O)c3ccccc3)cc2)NC(=O)[C@H](CC2CCCCC2)NC(=O)[C@H](C/C=C/c2ccccc2)NC(=O)/C=C\C(=O)N1` [cis-A12-B8-C10-D8], the IC50 at Pim1 is 17 µM; at MAPKAPK2 (MK2) it was 47 µM; in [4] it was 14 µM.

The record behind these values is patent US8975232B2, “Macrocyclic kinase inhibitors and uses thereof” (President and Fellows of Harvard College, priority 2010, dated 2015).
